From a melting point compilation (Tetko et al.; mined from patent text by program, amines drawn as free bases though some values may be those of a salt) come the findings set out here.

`CC(C)COC(=O)Nc1cccc(-c2ccnc3c(-c4cccs4)cnn23)c1` yielded a melting point of 140 to 141 °C. Regarding `CCCCOC(=O)C(Cl)=Cc1cc(-n2c(=O)cc(C(F)(F)F)n(C)c2=O)ccc1Cl`, the melting point fell in the range of 109 to 110 °C. `CC(C)(C)C(=O)c1sc(N)nc1-c1ccc(P(=O)(O)O)o1` came in with a melting point greater than 220 °C. In the case of `COC(=O)C1=C(C)NC(C(C)=O)=C(C(=O)OC)C1c1ccccc1Cl` (stereo not drawn) it was 161 to 162 °C; in that of `O=S(=O)(c1ccc(O)cc1)c1c(-c2ccccc2)cn2ccccc12`, 234 °C; in that of `CCCCC(CC)C(=O)Nc1ccc(Oc2ccccc2)c2c(=O)c3ccccc3n(C)c12` (stereo not drawn), 154 to 156 °C. The compound `CS(=O)(=O)c1ccc(-c2nc(C(F)(F)F)[nH]c2-c2ccc3ccccc3c2)cc1` gave a melting point of 228 to 230 °C. `N#Cc1cccnc1N1CCN(CC(=O)Nc2cccc(C(F)(F)F)c2F)CC1` came in with a melting point of 118 to 121 °C.

For the compound `COc1cc(C(=O)NS(=O)(=O)c2ccccc2C)ccc1Cn1ccc2ccc(CC(=O)NCC3CCCC3)cc21`, the melting point lay within 187 to 188 °C. `Cc1nc(N2C(=O)N(Cc3ccc(F)cc3)CC2O)sc1C(=O)NCc1ccccc1` (stereo not drawn) registered a melting point of 133 to 134 °C.

`COc1ccc2c(c1)[C@H](CO)OC2=O`: the melting point lay in the range of 137 to 140 °C. For the compound `O[C@H](CCc1cccnc1)COc1ccc(Br)cc1`, the melting point lay within 65 to 66 °C. In turn, `CCC(=O)NC1Cc2cccc3c2N(CCC3)C1=O` (stereo not drawn) returned a melting point of 149 to 152 °C. In the case of `O=C1CN(c2ccc(F)cc2)CCN1` it was 118 to 120 °C; in that of `O=c1c(-c2cccc(C(F)(F)F)c2)ccc2ccccn12`, 110 to 111 °C; in that of `CCc1ccccc1N1CCN(C(=S)Nc2nc3ccccc3nc2OC)CC1`, 141 to 143 °C. In turn, `CC1CCc2c(Cl)ccc3c(=O)c(C(=O)O)cn1c23` (stereo not drawn) had a melting point of 290 to 291 °C. With `O=C(O)C1=Cc2c(F)ccc(Br)c2OC1C(F)(F)F` (stereo not drawn) the figure was 222 to 223 °C; with `COC(=O)c1ccc(-c2nsc3nc4ccccc4n23)cc1`, 204 to 206 °C. The compound `CCOC(=O)C(C)c1ccc(-c2ccc(F)cc2F)c(F)c1` (stereo not drawn) had a melting point of 36 to 38 °C. With `CC(C)Oc1ccc2c(c1)OCC1c3ccccc3OC21` (stereo not drawn) the figure was 100 to 102 °C. In the case of `CSc1cc(Cl)ccc1C(=O)C(C#N)C(=O)c1cc(C(F)(F)F)cc(C(F)(F)F)c1` (stereo not drawn) it was 146 to 149 °C. With `CC(O)c1ccc(-c2ccc(OCc3ccccc3)cc2)cc1` (single isomer, unassigned; (+)) the figure was 158 to 159 °C; with `Cc1cnn(C(C)(C)C(=O)N(C)C)c1-c1ccccc1`, 136 to 139 °C.

Compound `COc1ccc(NC(=O)N2CCC(C)C2=O)cc1` (stereo not drawn) gave a melting point of 71 to 72 °C. The compound `O=C(O)c1snc(-c2ccc(Cl)c(Cl)c2)c1C(=O)O` registered a melting point of 188 °C.

`Cc1oc(-c2ccccc2)nc1CCOc1cccc(-c2cccc(OC3(C(=O)O)CCC3)c2)c1` yielded a melting point of 127 °C. In the case of `O=C(NC/C=C/c1ccccc1)c1cccs1` it was 110 °C. With `CCCCc1nc(SCC)c(CO)n1Cc1ccc(-c2ccccc2C(=O)O)cc1` the figure was 160 °C. In the case of `CCOC(=O)CC(=O)N(C)c1ccccc1N`, the melting point lay in the range of 63 to 64 °C. In the case of `COC(=O)C(=CN(C)C)n1ccc2ccc(-c3nccc(-c4ccccc4)n3)cc21` it was 168 °C. With `Nc1ncc(S(=O)c2ccc(C(F)(F)F)cn2)s1` (stereo not drawn) the figure was 144 to 145 °C; with `Cc1c(NC(=O)CC(C)(C)C)cc2c(c1C)OC(C)(C)C2c1ccc(C(C)C)cc1` (stereo not drawn), 172 to 173 °C; with `C=C(C)C(=O)NCC(=O)NCC(=O)O`, 200 to 201 °C. With `O=C(CCCCCCC(=O)c1ccc(O)cc1)c1ccc(O)cc1` the figure was 196 to 198 °C. On to `COc1ccc(Cn2c(=O)c(C(=O)NC3CCCCC3)c(O)c3cccnc32)cc1`, for which the melting point amounted to 149 °C.

`CC1CC(=O)NN=C1c1ccc(NN=C(C#N)C#N)cc1` (single isomer, unassigned; (+)) registered a melting point of 210 to 214 °C. In the case of `Cc1nc(N)c2nc(CO)n(NC3CCC3)c2c1C` it was 211 to 213 °C. In the case of `C=C(CC)C(=O)c1ccc(OC(C)(C)C(=O)O)c(Cl)c1Cl` it was 88 to 89 °C; in that of `CC(=O)Nc1ccc2c(c1)Cc1c(-c3ccccc3)n[nH]c1-2`, 275 to 276 °C. With `Nc1nc(NCCN2CCCCC2)nc(-c2cc(Cl)ccc2Cl)n1` the figure was 179 to 181 °C. Consider `CCCN(CCC)C1CCc2cc(NC(=O)C=NO)ccc2C1` (stereo not drawn), for which the melting point is 110 to 112 °C. With `OCc1cc(-c2ccc(C(F)(F)F)cc2)on1` the figure was 111 to 113 °C. In the case of `CCCCOc1nc(N)c2[nH]c(=O)n(CCCCNS(=O)(=O)c3ccc(CCC(=O)O)cc3)c2n1` it was 210 to 211 °C; in that of `CCOC(=O)C(=CNc1ccccc1[N+](=O)[O-])C(=O)OCC`, 104 to 105 °C; in that of `CCCCCCCCCCNC(=O)C=Cc1cccc(NC(=O)/C=C\C(=O)O)c1`, 187 to 188 °C.

In turn, `Cc1c(CC=CN2CCN3c4cc(F)ccc4CCC3C2)cnn1-c1cc(N(C)C)nc(N)n1` (stereo not drawn) returned a melting point of 205 °C. Regarding `CN(C)C(=O)C1(NS(=O)(=O)c2ccc3c(Cl)cnc(NC(=N)N)c3c2)CCCC1`, the melting point is 264 to 268 °C.

In the case of `N#Cc1ccc(OCc2cnsc2)cc1F`, the melting point was 102 to 105 °C. In turn, `COc1cc(Cn2cnc3c(-c4ccco4)ncnc32)cc(OC)c1OC` displayed a melting point of 195 to 196 °C.

For the compound `CONC(=O)c1[nH]c(C)c(-c2nc3ccc(C(=O)c4ccccc4)cc3[nH]2)c1C`, the melting point fell in the range of 203 to 205 °C.

`CCOC(=O)C1=CC2(CCC1S(=O)(=O)Nc1ccc(F)cc1Cl)OCCO2` (stereo not drawn): the melting point was in the range of 117 to 119 °C. With `CC1(C)COC(c2ccc3c(c2)COC3=O)=N1` the figure was 109 to 111 °C; with `NC(=O)CCC(=O)c1ccccc1`, 122 to 124 °C. In the case of `CCCCCCCCCC1COC(c2ccc(CCCCCCC)c(F)c2F)OC1` (stereo not drawn) it was 40.4 °C; in that of `C=CCN1CCc2cc(OC)c(O)c3c2C1Cc1cc(OC)c(OC)cc1-3` (single isomer, unassigned; (+)), 85 to 93 °C; in that of `COCCOCCOCCOc1ccc(-c2nc(C(=O)Nc3nccs3)c(-c3ccc(Cl)cc3)[nH]2)cc1`, 120 to 122 °C. `N[C@H]1CC[C@H](Nc2ccnc3cc(C(F)(F)F)ccc23)CC1` showed a melting point of 186 °C. `CCCc1c(OCCCCCOc2ccc(C(C)=O)cc2CCC(=O)O)ccc2c1OCCC2=O` had a melting point of 115 to 118 °C.

In the case of `COc1ccc(C(=O)C2=C(c3ccccc3)c3ccccc3C2)cc1`, the melting point was in the range of 114 to 115 °C.

Regarding `CC(C)C(=O)c1c(-c2ccc(F)cc2)nn2cc(C(F)(F)F)ccc12`, the melting point fell in the range of 129 to 130 °C.

Compound `O=C(Nc1ccc(Oc2c(Cl)cc(C(F)(F)F)c(Cl)c2Cl)cc1Cl)Nc1nonc1-c1ccccc1` displayed a melting point of 209 °C. Take `CC(=O)Nc1cccc(-n2ncc(=O)n(Cc3ccc(Cl)cc3F)c2=O)c1`: the melting point is 184 °C.
